According to the NIST ThermoML archive (doi:10.1016/j.jct.2018.05.008):

Assay: mn = molality of the nth substance listed, in mol/kg
Conditions: 101.3 kPa, Liquid, Vibrating tube method

CCCCn1cc[n+](C)c1.[Br-] [1-butyl-3-methylimidazolium bromide] + O
mass density [kg/m3]
Conditions	288.15 K	298.15 K	308.15 K	310.15 K	318.15 K
m1 = 0.0493	1001.53	999.41	996.35	995.63	992.48
m1 = 0.0509	1001.61	999.52	996.47	995.75	992.61
m1 = 0.0513	1001.57	999.46	996.38	995.68	992.51
m1 = 0.0518	1001.67	999.57	996.52	995.81	992.66
m1 = 0.0557	1001.85	999.75	996.69	995.98	992.83
m1 = 0.1002	1003.91	1001.72	998.61	997.87	994.63
m1 = 0.1004	1004.02	1001.86	998.75	998.04	994.69
m1 = 0.101	1004.05	1001.87	998.72	998	994.83
m1 = 0.1073	1004.38	1002.22	999.1	998.38	995.11
m1 = 0.1133	1005.08	1002.9	999.78	999.06	995.72
m1 = 0.1957	1008.66	1006.35	1003.13	1002.38	999.01
m1 = 0.2009	1008.82	1006.51	1003.27	1002.54	999.26
m1 = 0.201	1008.91	1006.62	1003.37	1002.65	999.35
m1 = 0.2016	1009.08	1006.79	1003.57	1002.83	999.57
m1 = 0.2345	1010.39	1008.06	1004.81	1004.05	1000.65
m1 = 0.2633	1012.6	1010.24	1006.95	1006.2	1002.9
m1 = 0.2918	1013.08	1010.67	1007.36	1006.6	1003.16
m1 = 0.2964	1013.29	1010.87	1007.54	1006.76	1003.29
m1 = 0.2981	1013.19	1010.75	1007.42	1006.65	1003.33
m1 = 0.3007	1013.75	1011.3	1007.96	1007.19	1003.81

NCC(=O)O [2-aminoacetic acid] + O
mass density [kg/m3]
Conditions	m1 = 0.0602	m1 = 0.1201	m1 = 0.1992	m1 = 0.3016	m1 = 0.3854	m1 = 0.4462	m1 = 0.5271	m1 = 0.6444	m1 = 0.7856
288.15 K	1001.04	1002.97	1005.49	1008.71	1011.3	1013.17	1015.62	1019.16	1023.32
298.15 K	998.98	1000.87	1003.34	1006.49	1009.02	1010.84	1013.23	1016.66	1020.69
308.15 K	995.95	997.8	1000.22	1003.32	1005.82	1007.61	1009.97	1013.36	1017.38
310.15 K	995.25	997.1	999.51	1002.59	1005.07	1006.86	1009.22	1012.6	1016.6
318.15 K	992.13	993.97	–	999.45	1001.91	1003.69	1006.03	1009.41	1013.42

CCC(N)C(=O)O (stereo not drawn) [(.+-.)-α-aminobutyric acid] + O
mass density [kg/m3]
Conditions	m1 = 0.2006	m1 = 0.4945	m1 = 0.5944	m1 = 0.6791	m1 = 0.7812	m1 = 0.8868	m1 = 0.9902
288.15 K	1004.67	1012.46	1015	1017.13	1019.67	1022.24	1024.71
298.15 K	1002.5	1010.14	1012.62	1014.71	1017.19	1019.71	1022.13
308.15 K	999.41	1006.94	1009.38	1011.44	1013.88	1016.36	1018.74
310.15 K	998.69	1006.2	1008.64	1010.69	1013.12	1015.6	1017.97
318.15 K	995.55	1003.01	1005.46	1007.5	1009.85	1012.32	1014.68

C[C@H](N)C(=O)O [(S)-2-aminopropanoic acid] + O
mass density [kg/m3]
Conditions	m1 = 0.0522	m1 = 0.1036	m1 = 0.2032	m1 = 0.3122	m1 = 0.3941	m1 = 0.4964	m1 = 0.5873	m1 = 0.6752	m1 = 0.791
288.15 K	1000.63	1002.12	1004.98	1008.03	1010.29	1013.01	1015.47	1017.77	1020.75
298.15 K	998.58	1000.04	1002.84	1005.84	1008.05	1010.78	1013.15	1015.38	1018.3
308.15 K	995.56	997	999.75	1002.71	1004.9	1007.59	1009.93	1012.15	1015.04
310.15 K	994.85	996.28	999.03	1001.99	1004.18	1006.87	1009.2	1011.4	1014.3
318.15 K	991.74	993.17	995.9	998.84	1001	1003.68	1006.01	1008.22	1011.1

N[C@@H](CO)C(=O)O [L-serine] + O
mass density [kg/m3]
Conditions	m1 = 0.0489	m1 = 0.104	m1 = 0.2	m1 = 0.292	m1 = 0.3911	m1 = 0.471	m1 = 0.5884	m1 = 0.6788	m1 = 0.7168
288.15 K	1001.29	1003.76	1008.02	1012.04	1016.28	1019.63	1024.47	1028.16	1029.64
298.15 K	999.22	1001.64	1005.81	1009.76	1013.93	1017.22	1021.98	1025.59	1027.05
308.15 K	996.21	998.6	1002.72	1006.6	1010.72	1013.95	1018.62	1022.22	1023.66
310.15 K	995.5	997.89	1002	1005.88	1009.98	1013.21	1017.85	1021.44	1022.88
318.15 K	992.38	994.75	998.83	1002.65	1006.72	1009.93	1014.6	1018.12	1019.57

C[C@@H](O)[C@H](N)C(=O)O [L-threonine] + O
mass density [kg/m3]
Conditions	m1 = 0.1926	m1 = 0.2858	m1 = 0.3869	m1 = 0.4789	m1 = 0.5872	m1 = 0.6687
288.15 K	1007.25	1011.08	1015.18	1018.78	1022.93	1026.01
298.15 K	1005.04	1008.79	1012.82	1016.36	1020.45	1023.46
308.15 K	1001.91	1005.62	1009.58	1013.09	1017.13	1020.1
310.15 K	1001.19	1004.89	1008.86	1012.35	1016.39	1019.34
318.15 K	998.01	1001.68	1005.6	1009.09	1013.09	1016.02

O [water] + CCC(N)C(=O)O
Conditions	mass density [kg/m3]
310.15 K, m2 = 0	993.32

O [water] + CCCCn1cc[n+](C)c1.[Br-]
m2 = 0
Conditions	mass density [kg/m3]
308.15 K	994.07
310.15 K	993.37
318.15 K	990.26

O [water] + C[C@@H](O)[C@H](N)C(=O)O
Conditions	mass density [kg/m3]
310.15 K, m2 = 0	993.32

O [water] + C[C@H](N)C(=O)O
m2 = 0
Conditions	mass density [kg/m3]
308.15 K	994.08
310.15 K	993.38
318.15 K	990.27

O [water] + NCC(=O)O
m2 = 0
Conditions	mass density [kg/m3]
308.15 K	994.07
310.15 K	993.37
318.15 K	990.26

O [water] + N[C@@H](CO)C(=O)O
m2 = 0
Conditions	mass density [kg/m3]
308.15 K	994.06
310.15 K	993.36
